“Also recorded” adds a separate entry of the source.
Assays:
[1] = biological target: T1, recombinant sEH-P domain (N-terminal domain of sEH) (Homo sapiens, UniProt P34913); assay: FDP-based phosphatase assay, isolated sEH-P domain; format: biochemical; conditions: FDP substrate, recombinant sEH-P domain
T1 sequence (P34913 1-222): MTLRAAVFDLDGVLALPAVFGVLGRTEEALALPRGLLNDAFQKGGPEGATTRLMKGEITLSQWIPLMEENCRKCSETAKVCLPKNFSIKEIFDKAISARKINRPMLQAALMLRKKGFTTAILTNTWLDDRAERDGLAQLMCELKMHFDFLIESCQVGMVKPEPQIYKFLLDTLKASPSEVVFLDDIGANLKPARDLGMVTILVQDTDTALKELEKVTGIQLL

[2] = biological target: T2, human fl sEH (sEH-H activity) (Homo sapiens, UniProt P34913); assay: PHOME-based hydrolase assay, full-length human sEH; format: biochemical
T2 sequence (P34913 1-555): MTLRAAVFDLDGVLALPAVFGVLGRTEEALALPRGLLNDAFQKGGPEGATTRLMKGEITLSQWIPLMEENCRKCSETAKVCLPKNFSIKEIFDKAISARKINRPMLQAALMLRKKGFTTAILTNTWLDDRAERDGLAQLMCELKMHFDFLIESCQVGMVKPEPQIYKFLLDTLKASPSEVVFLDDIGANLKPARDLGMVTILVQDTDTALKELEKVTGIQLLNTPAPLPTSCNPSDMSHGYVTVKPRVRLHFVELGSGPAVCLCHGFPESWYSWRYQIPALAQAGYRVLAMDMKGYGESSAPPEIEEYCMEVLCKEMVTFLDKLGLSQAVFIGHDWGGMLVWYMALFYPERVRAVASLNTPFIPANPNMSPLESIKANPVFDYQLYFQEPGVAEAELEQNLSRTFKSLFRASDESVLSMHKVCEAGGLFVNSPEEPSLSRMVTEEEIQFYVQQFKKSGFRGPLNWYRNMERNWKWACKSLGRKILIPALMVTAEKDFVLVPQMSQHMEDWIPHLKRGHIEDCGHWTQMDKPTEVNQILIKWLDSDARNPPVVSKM

[3] = biological target: T3, N-terminal domain of sEH (sEH-P) (Homo sapiens, UniProt P34913); assay: Differential scanning fluorimetry; format: binding; conditions: inhibitor 50 μM
T3 sequence (P34913 2-224): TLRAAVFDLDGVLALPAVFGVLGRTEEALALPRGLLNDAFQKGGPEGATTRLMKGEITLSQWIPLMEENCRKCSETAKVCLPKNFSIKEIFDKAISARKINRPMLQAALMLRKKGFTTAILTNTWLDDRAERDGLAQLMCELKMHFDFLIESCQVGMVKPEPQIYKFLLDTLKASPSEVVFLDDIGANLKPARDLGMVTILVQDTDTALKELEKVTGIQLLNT

[4] = biological target: T4, C-terminal domain of sEH (sEH-H) (Homo sapiens, UniProt P34913); assay: Differential scanning fluorimetry; format: binding; conditions: inhibitor 50 μM
T4 sequence (P34913 235-555 limits assumed): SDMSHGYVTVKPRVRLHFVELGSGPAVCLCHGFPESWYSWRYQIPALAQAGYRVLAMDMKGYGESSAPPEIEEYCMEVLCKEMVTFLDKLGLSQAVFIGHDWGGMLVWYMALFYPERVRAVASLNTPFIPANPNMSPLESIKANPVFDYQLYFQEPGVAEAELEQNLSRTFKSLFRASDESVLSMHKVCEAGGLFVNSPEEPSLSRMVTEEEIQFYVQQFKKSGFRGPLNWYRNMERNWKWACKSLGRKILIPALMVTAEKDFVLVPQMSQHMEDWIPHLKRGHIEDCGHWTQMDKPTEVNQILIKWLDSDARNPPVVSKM

[5] = biological target: T5, PPARα (Homo sapiens, UniProt Q07869); assay: Gal4 hybrid reporter gene assay in HEK293T cells; format: cell-based; conditions: at 10 μM; reference GW7647 1 μM
T5 sequence (Q07869 239-466 limits assumed): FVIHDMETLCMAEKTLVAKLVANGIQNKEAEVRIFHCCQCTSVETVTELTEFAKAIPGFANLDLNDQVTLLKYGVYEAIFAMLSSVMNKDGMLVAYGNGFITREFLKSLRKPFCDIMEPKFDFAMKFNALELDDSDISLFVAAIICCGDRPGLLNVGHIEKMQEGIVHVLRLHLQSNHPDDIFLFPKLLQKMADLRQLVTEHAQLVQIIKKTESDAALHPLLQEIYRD

[6] = biological target: T6, PPARβ/δ (Homo sapiens, UniProt Q03181); assay: Gal4 hybrid reporter gene assay in HEK293T cells; format: cell-based; conditions: at 10 μM; reference L165,041 1 μM
T6 sequence (Q03181 211-439 limits assumed): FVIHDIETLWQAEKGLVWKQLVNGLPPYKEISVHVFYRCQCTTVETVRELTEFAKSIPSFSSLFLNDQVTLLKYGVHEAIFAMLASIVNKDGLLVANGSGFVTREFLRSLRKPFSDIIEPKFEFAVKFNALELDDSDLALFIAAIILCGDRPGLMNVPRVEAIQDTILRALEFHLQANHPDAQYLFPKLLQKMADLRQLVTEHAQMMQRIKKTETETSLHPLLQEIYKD

[7] = biological target: T7, FXR (Homo sapiens, UniProt Q96RI1); assay: Gal4 hybrid reporter gene assay in HEK293T cells; format: cell-based; conditions: at 10 μM; reference GW4064 1 μM
T7 sequence (Q96RI1 262-486 limits assumed): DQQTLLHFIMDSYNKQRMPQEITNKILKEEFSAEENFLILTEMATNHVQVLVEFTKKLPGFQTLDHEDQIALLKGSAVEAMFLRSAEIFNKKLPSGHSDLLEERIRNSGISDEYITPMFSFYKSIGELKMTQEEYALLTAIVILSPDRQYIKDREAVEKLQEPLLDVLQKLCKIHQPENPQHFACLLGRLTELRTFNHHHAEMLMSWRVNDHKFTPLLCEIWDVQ

[8] = biological target: T8, LXRα (Homo sapiens, UniProt Q13133); assay: Gal4 hybrid reporter gene assay in HEK293T cells; format: cell-based; conditions: at 10 μM; reference T0901317 1 μM
T8 sequence (Q13133 209-447 limits assumed): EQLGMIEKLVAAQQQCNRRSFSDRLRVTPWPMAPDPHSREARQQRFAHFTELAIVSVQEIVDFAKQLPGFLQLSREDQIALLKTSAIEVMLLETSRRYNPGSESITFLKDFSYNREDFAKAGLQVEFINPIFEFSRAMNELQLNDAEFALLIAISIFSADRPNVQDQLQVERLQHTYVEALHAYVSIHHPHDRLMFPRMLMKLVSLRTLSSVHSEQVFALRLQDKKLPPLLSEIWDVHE

[9] = biological target: T9, LXRβ (Homo sapiens, UniProt P55055); assay: Gal4 hybrid reporter gene assay in HEK293T cells; format: cell-based; conditions: at 10 μM; reference T0901317 1 μM
T9 sequence (P55055 222-460 limits assumed): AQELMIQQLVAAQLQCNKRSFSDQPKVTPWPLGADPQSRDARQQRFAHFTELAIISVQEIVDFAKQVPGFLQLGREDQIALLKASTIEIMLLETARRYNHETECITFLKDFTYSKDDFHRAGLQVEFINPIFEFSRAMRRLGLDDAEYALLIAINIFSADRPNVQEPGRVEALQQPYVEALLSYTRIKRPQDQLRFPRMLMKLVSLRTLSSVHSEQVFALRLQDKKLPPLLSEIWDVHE

[10] = Pharmacokinetic study in male Sprague-Dawley rats; format: in vivo, rat; conditions: 30 mg/kg p.o., male SD rats
[11] = tested on: sEH-H; assay: Epoxy fatty acid/diol ratios in rat plasma by LC-MS/MS; format: in vivo; conditions: rat plasma 8 h after 30 mg/kg p.o., vs vehicle
[12] = biological target: T10, full-length human sEH (Homo sapiens, UniProt P34913); assay: DiFMUP-based phosphatase assay, full-length sEH; conditions: DiFMUP substrate
T10 sequence (P34913 1-555): T2 sequence (P34913 1-555)

[13] = biological target: T11, isolated N-terminal domain of sEH (sEH-P) (Homo sapiens, UniProt P34913); assay: DiFMUP-based phosphatase assay, isolated N-terminal domain; conditions: DiFMUP substrate
T11 sequence (P34913 1-222): T1 sequence (P34913 1-222)

[14] = biological target: T12, PPARγ (Homo sapiens, UniProt P37231); assay: Gal4 hybrid reporter gene assay in HEK293T cells; format: cell-based; conditions: at 10 μM; reference pioglitazone 1 μM
T12 sequence (P37231 238-503 limits assumed): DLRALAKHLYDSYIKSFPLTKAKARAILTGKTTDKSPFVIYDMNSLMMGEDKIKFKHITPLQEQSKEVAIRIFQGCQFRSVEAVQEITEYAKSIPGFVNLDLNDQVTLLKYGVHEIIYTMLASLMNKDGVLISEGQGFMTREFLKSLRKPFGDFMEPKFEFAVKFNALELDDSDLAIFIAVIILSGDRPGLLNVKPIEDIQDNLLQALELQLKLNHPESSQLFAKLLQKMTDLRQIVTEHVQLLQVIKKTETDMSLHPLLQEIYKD

PPARγ transactivation of the reference agonist [14] | SMILES | inhibitory potency toward sEH-P (SAR statement in words) [1] | IC50 [2] [µM] | stabilization of the N-terminal domain in DSF [3] | stabilization of the C-terminal domain in DSF [4] | PPARα transactivation of the reference agonist [5] | PPARβ/δ transactivation of the reference agonist [6] | FXR transactivation of the reference agonist [7] | LXRα transactivation of the reference agonist [8] | LXRβ transactivation of the reference agonist [9] | maximum plasma concentration [10] [µg/mL] | ratio of main epoxy fatty acids to their respective diols [11] | mode of inhibition [12] | mode of inhibition [13]
– | O=C(O)CCCc1nc(-c2ccc(Cl)c(Cl)c2)c(-c2ccccc2)o1 [22b, 4-(4-(3,4-Dichlorophenyl)-5-phenyloxazol-2-yl)butanoic Acid] | further improved the inhibitory activity | ~9 | stabilized; also recorded: able to stabilize | did not stabilize | inactive at 10 μM | inactive at 10 μM | inactive at 10 μM | inactive at 10 μM | inactive at 10 μM | 48 | did not influence | competitive inhibitor | competitive inhibitor
inactive at 10 μM | O=C(O)CCc1nc(-c2ccccc2)c(-c2ccccc2)o1 [compound 5, oxaprozin, reference compound] | – | – | – | – | inactive at 10 μM | inactive at 10 μM | – | inactive at 10 μM | inactive at 10 μM | – | – | – | –

Source: publication PMC7262789 (Journal of medicinal chemistry, 2019)
